Test results published in patent US20140308261A1, “HLA-DR7 HY epitope and method for treating leukaemia” (Etablissement Français du Sang, priority 2011, published 2014).

Tested on: CD4^+ T-lymphocytes
Assay: Cytokine mRNA expression profile after stimulation of CD4+ T-lymphocytes with short peptides from QR-40 pulsed on HLA-DR7 EBV cells
Assay type: cell-based, human
Description: The total RNA of the clones or cell lines was isolated from 1×10^6 cells by using the Rnagent kit (Promega, Madison, Wis., United States). The total RNA was converted to single stranded cDNA by using an oligo (dT) primer (Amersham Pharmacia Biotech, Orsay, France) and the reverse transcriptase of the avian myeloblastosis virus, in conformance with the manufacturer's specifications (Promega).
HY-specific CD4^+ T-lymphocytes were stimulated, each with […] EBV-B LCL transduced with the HY gene. The proliferation and production of IFN-γ were measured by the incorporation of ^3H-[methyl-thymidine] on day 3, and ELISA on day 1. To map the precise T-lymphocyte epitope restricted to the MHC class II, the inventors synthesized several long peptides with a potential bond with DRB1*0701 encoded in the RPS4Y regions which are different from RPS4X, based on several databases for MHC peptide binding, such as SYFPEITHI, Net-MHC, Propred and HotSpot Hunter. These peptides were tested at various concentrations: from 100 μM to 10 nM, using […] EBV-B-LCLs that express the HLA-DRB1*0701 molecule in the form of APC. The short peptide in question was identified using a series of peptides of 15 amino acids, also identified from these databases, and which are present in the long peptide which induces a positive response.
The inventors were therefore able to identify TGKIINFIKFDTGNL (SEQ ID NO: 1) as the HY peptide epitope recognized by the CD4^+ T-lymphocytes (FIG. 6). […] It is interesting to note that the cloned T-lymphocytes presented the same cytokine profile as the T-lymphocyte cell line.

[1] = female HLA-DR7 EBV cells pulsed with peptide

Row | Sequence | stimulation of the CD4+ T-lymphocytes by 15-mer peptides in QR-40 (in words) (Table 9) | FoxP3 mRNA response (in words) (at 1 μM) | IFNγ mRNA induction (in words) [1] | IL-2 mRNA expression (in words) [1] | FoxP3/CD3ε mRNA ratio (peptide 1 μM) | IFNγ/CD3ε mRNA ratio (peptide 1 μM) | IL2/CD3ε mRNA ratio (peptide 1 μM) | FoxP3/CD3ε mRNA ratio (peptide 10 μM) | IFNγ/CD3ε mRNA ratio (peptide 10 μM) | IL2/CD3ε mRNA ratio (peptide 10 μM)
1 | TGKIINFIKFDTGNL (peptide TL15) [HY epitopic 15-mer peptide from RPS4Y presented by HLA-DR7] | stimulated the cells | highest FoxP3 mRNA response | specific IFNγ induction | low IL-2 mRNA expression | 0.42 | 9.91 | 0.06 | 0.44 | 12.63 | 0.23
2 | TGNVCMVIAGANLGRVG (Peptide TG17-2) [short peptide tested with the QR-40 peptides] |  |  |  |  | 0.23 | 0.009 | 0.0047 | 0.3 | 0.5 | 0.01
3 | TGNLCMVIGGANLGRVG (Peptide TG17-1) [short peptide from peptide QR-40] |  |  |  |  | 0.12 | 0.11 | 0.006 | 0.32 | 0.11 | 0.02
4 | GKIINFIKFDTGNLCMV (Peptide GV17) [short peptide from peptide QR-40] |  |  |  |  | 0.12 | 0.12 | 0.02 | 0.27 | 0.82 | 0.02
